Data taken from patent US12570685B2, “2-methoxyestradiol derivatives and medical uses thereof” (INSTITUT PASTEUR KOREA, priority 2019, dated 2026).

System: HUVECs
Assay: Radiation-induced EndMT / stress fiber phenomic screening in HUVECs using the HCS system
Format: cell-based, human
Details: 48 hours, compared to IR (control) treated group; for Stress Fiber Pre-: HUVECs pre-treated 1 hour before radiation; for Stress Fiber Pre- / Stress Fiber Post-: Phalloidin; for Stress Fiber Post-: HUVECs treated after 10 Gy irradiation (3 hours)
Procedure: We established a phenomic screening platform to measure radiation-induced stress fibers and optimized the conditions for high-throughput screening using HUVEC cells to develop compounds targeting RIPF. […] 2-ME derivatives were prepared and their anti-fibrotic activities were tested in vitro [Table 3] and in vivo mouse models [FIGS. 1 and 2]. […] In this test, HUVECs were pre-treated with 2-ME derivatives at 1 hour before radiation and irradiated with 10 Gy. After 48 hours, HUVECs stained with Phalloidin and Hoechst to assess morphological changes Collagen type 1 (BD Collagen I, 354236, Thermo Fisher Scientific) was diluted in 70% ethanol, and then the collagen solution (400 μg/ml) was dispensed into each 384-well plate (6007550, Perkin Elmer, MA, US). After a 1-hour incubation at room temperature, the wells were rinsed twice with Dulbecco's phosphate-buffered saline. HUVECs were seeded at a density of 7×10^2 cells per well onto collagen-coated, 384-well plates and allowed to attach in complete growth media. Cells were then exposed to 10 Gy radiation at room temperature. After irradiation, the cells were incubated for an additional 3 hours. The compounds were tested at a final concentration of 10 μM in 0.5% dimethyl sulfoxide (DMSO; v/v) using an automated liquid handling system (Hummingbird, Analytik Jena, Jena, DE). After the 48-hour treatment, cells were fixed with 4% paraformaldehyde (w/v). The expression of actin filament was determined by incubation with 488-Phalloidin (1:100, MOP-[…], Thermo Fisher Scientific) using direct immunofluorescence staining. The nuclei were stained using Hoechst 33342 (1:1000, MOP-H3570, Thermo Fisher Scientific) at room temperature. For assay validation, a control run was performed. The low control consisted of three 384-well plates that contained irradiated cells, and the high control consisted of three 384-well plates that contained non-irradiated cells. For detecting and visualizing filamentous actin (F-actin) and nuclei, images were collected using an automated high-content imaging system with a 20× magnifying objective (Operetta, PerkinElmer). The acquired images were analyzed using an in-house software tool and Harmony 3.5.1® high-content imaging (Harmony, PerkinElmer) for segmentation of cells.

SMILES	Cell number (HUVECs, 10 Gy, 10 μM)	Stress Fiber Pre- (10 Gy)	Stress Fiber Post- (10 μM)
COc1cc2c(cc1O)CCC1C2CC[C@]2(C)C(=O)C=CC12 (stereo partly shown) [compound 2]	X (there were more than 10% changes in the cell number compare to IR (control) treated group)		
COc1cc2c(cc1OC(C)=O)CCC1C2CC[C@@]2(C)C1CC[C@@H]2OC(C)=O (stereo partly shown) [compound 5]		O (there were stress fiber decreasing more than 20% compare to IR (control) treated group)	
CCC(=O)Oc1cc2c(cc1OC)C1CC[C@@]3(C)C(CC[C@@H]3OC(=O)CC)C1CC2 (stereo partly shown) [compound 6]		O (there were stress fiber decreasing more than 20% compare to IR (control) treated group)	
COc1cc2c(cc1OC(C)=O)CCC1C2CC[C@@]2(C)C1CC[C@@H]2O (stereo partly shown) [compound 10]		O (there were stress fiber decreasing more than 20% compare to IR (control) treated group)	O (there were stress fiber decreasing more than 20% compare to IR (control) treated group)
CCC(=O)Oc1cc2c(cc1OC)C1CC[C@@]3(C)C(CC[C@@H]3O)C1CC2 (stereo partly shown) [compound 11]		O (there were stress fiber decreasing more than 20% compare to IR (control) treated group)	O (there were stress fiber decreasing more than 20% compare to IR (control) treated group)
